Assay [1] deals with MCF7. Briefly: Antiproliferative activity against human MCF7 cells assessed as cell growth inhibition incubated for 48 hrs by MTT assay. It counts as functional, cell-based. To be noted: MCF7, 48 h. (In general: Formazan colour is commonly taken as a measure of viable cells.)
The test system of assay [2] is HepG2. Nature of the assay: Antiproliferative activity against human HepG2 cells assessed as cell growth inhibition incubated for 48 hrs by MTT assay. It counts as functional, cell-based. To be noted: HepG2, 48 h.
Assay [3] concerns HCT-116. Nature of the assay: Antiproliferative activity against human HCT-116 cells assessed as cell growth inhibition incubated for 48 hrs by MTT assay. It counts as functional, cell-based. To be noted: HCT-116, 48 h.
For assay [4], the system named is BGC-823. Briefly: Antiproliferative activity against human BGC-823 cells assessed as cell growth inhibition at 0.5 uM incubated for 48 hrs by MTT assay relative to control. It counts as functional.
Assay [5] relates to BGC-823. Briefly: Antiproliferative activity against human BGC-823 cells assessed as cell growth inhibition incubated for 48 hrs by MTT assay. It counts as functional, cell-based. To be noted: BGC-823, 48 h.
The test system of assay [6] is HeLa. Briefly: Antiproliferative activity against human HeLa cells assessed as cell growth inhibition incubated for 48 hrs by MTT assay. The assay is classed as functional, cell-based.
For assay [7], the system named is BGC-823. Briefly: Induction of apoptosis in human BGC-823 cells assessed as viable cells at 1 uM incubated for 24 hrs by annexin-V-FITC and PI staining based flow cytometry analysis (reference value: 96.3%). The assay is classed as functional. To be noted: read-out: Activity. On the technique in general: In flow cytometry, cells or beads pass a laser one at a time.

The subject of assay [8] is BGC-823. Nature of the assay: Induction of apoptosis in human BGC-823 cells assessed as necrotic cells at 1 uM incubated for 24 hrs by annexin-V-FITC and PI staining based flow cytometry analysis (reference value: 0.6%). It counts as functional.
The subject of assay [9] is BGC-823. Briefly: Induction of apoptosis in human BGC-823 cells assessed as early apoptotic cells at 1 uM incubated for 24 hrs by annexin-V-FITC and PI staining based flow cytometry analysis (reference value: 2.4%). It counts as functional.
Assay [10] has as its system BGC-823. Briefly: Antitumor activity against human BGC-823 cells xenografted in athymic BALB/c nude mouse assessed as tumor growth inhibition rate at 1.5 mg/kg, ip measured every 2 days for 21 days by curson caliper method relative to control. To be noted: BGC-823, 504 h, time 21 day, read-out: TGI. It counts as functional. (In general: In xenograft studies the graft and the host belong to different species.)

Assay [11] concerns BGC-823. Nature of the assay: Induction of apoptosis in human BGC-823 cells assessed as late apoptotic cells at 1 uM incubated for 24 hrs by annexin-V-FITC and PI staining based flow cytometry analysis (reference value: 0.6%). It counts as functional.

Some results are limits rather than exact numbers.

One may read the IC50 as the concentration at which inhibition is half-maximal. One may read the inhibition as the drop in the measured response relative to a control, in per cent.

On to `CCOC(=O)c1cnn(CCCCOC(=O)[C@]2(C)CC[C@]3(C)CC[C@]4(C)C5=CC=C6C(=CC(=O)C(O)=C6C)[C@]5(C)CC[C@@]4(C)[C@@H]3C2)c1`, for which the IC50 in assay [1] worked out at 720 nM; in assay [2], 700 nM; in assay [3], 530 nM; in assay [5] it was 330 nM; in assay [6], 750 nM. The inhibition at 0.5 µM in assay [4] was > 50%.

As to `CC1=C(O)C(=O)C=C2C1=CC=C1[C@@]2(C)CC[C@@]2(C)[C@@H]3C[C@](C)(C(=O)OCCCCn4cccn4)CC[C@]3(C)CC[C@]12C`, the concentration for half-maximal inhibition (IC50) in [1] worked out at 1100 nM; in assay [2] it was 860 nM; in [3] it was 890 nM; in [5] it was 470 nM; in [6] it was 1100 nM. Further, the inhibition at 0.5 µM in assay [4] is > 50%.

Regarding `COC(=O)c1cnn(CCCOC(=O)[C@]2(C)CC[C@]3(C)CC[C@]4(C)C5=CC=C6C(=CC(=O)C(O)=C6C)[C@]5(C)CC[C@@]4(C)[C@@H]3C2)c1`, the IC50 came out at 520 nM in assay [1]; 390 nM in assay [2]; 590 nM in assay [3]; 280 nM in assay [5]; 610 nM in assay [6]. For the same compound, in assay [4], the inhibition at 0.5 µM is > 50%.

Consider `COC(=O)c1cnn(CCCCOC(=O)[C@]2(C)CC[C@]3(C)CC[C@]4(C)C5=CC=C6C(=CC(=O)C(O)=C6C)[C@]5(C)CC[C@@]4(C)[C@@H]3C2)c1`, for which the IC50 in assay [1] came out at 840 nM; in assay [2], 820 nM; in assay [3], 690 nM; in assay [5], 340 nM; in [6] it was 820 nM. For the same compound, in assay [4], the inhibition at 0.5 µM was > 50%.

Consider `CC1=C(O)C(=O)C=C2C1=CC=C1[C@@]2(C)CC[C@@]2(C)[C@@H]3C[C@](C)(C(=O)O)CC[C@]3(C)CC[C@]12C` [CELASTROL], for which the viability at 1 µM in assay [7] was determined as 79.7%. Moreover, the half-inhibitory concentration (IC50) is 1700 nM in assay [1]; 1500 nM in [2]; 1900 nM in assay [3]; 1100 nM in assay [5]; 1700 nM in assay [6]. Further, the Activity was found to be 0.2% in [8], 16.1% in assay [9] and 4% in assay [11]. For the same compound, the inhibition in vivo at 1.5 mg/kg in [10] was 76.5%.

`CC1=C(O)C(=O)C=C2C1=CC=C1[C@@]2(C)CC[C@@]2(C)[C@@H]3C[C@](C)(C(=O)OCCCCn4cc([N+](=O)[O-])cn4)CC[C@]3(C)CC[C@]12C`: the IC50 in assay [1] amounted to 740 nM; in assay [2] it was 480 nM; in assay [3] it was 640 nM; in assay [5] it was 460 nM; in [6], 880 nM. Also, in [4], the inhibition at 0.5 µM was > 50%.

As for `CC1=C(O)C(=O)C=C2C1=CC=C1[C@@]2(C)CC[C@@]2(C)[C@@H]3C[C@](C)(C(=O)OCCCCn4cc(C)cn4)CC[C@]3(C)CC[C@]12C`, the IC50 in assay [1] worked out at 1000 nM; in [2], 840 nM; in assay [3], 880 nM; in assay [5], 430 nM; in assay [6], 910 nM. In addition, the inhibition at 0.5 µM in assay [4] is > 50%.

Values taken from ChEMBL document CHEMBL5120866, “Design and Synthesis of Novel Celastrol Derivatives as Potential Anticancer Agents against Gastric Cancer Cells” (J Nat Prod, 2022).
